Measurements: article PMC4627230, “Identification of TAX2 peptide as a new unpredicted anti-cancer agent” (Oncotarget, 2015)

Tests used:
[1] = test system: immobilized TSP-1 (thrombospondin from human platelets); assay: ELISA binding of biotin-labeled peptides to immobilized TSP-1; settings: biotin-labeled peptide 10 μg/mL, 3 h, room temperature, 0.5% BSA; absorbance 450 nm; n = 3 in triplicate
Description: Microtiter plates (Nunc, ThermoFisher Scientific, Courtaboeuf, France) were coated overnight at 4°C with 0.5 μg TSP-1 in sodium carbonate-bicarbonate (BupH) buffer (Thermo Fisher Scientific). Plates were washed with PBS 0.1% BSA (Sigma-Aldrich) and non-specific sites were saturated during 30 min using 1% (w/v) BSA in BupH buffer. Biotin-labeled peptide (10 μg/mL, determined after dose-response assay from 0.01 to 100 μg/mL) was added in buffer containing 0.5% (w/v) BSA and incubated for 3 h at room temperature. Non-labeled peptide (0.001 to 5 mg/mL) was used as selective competitor. Plates were washed with PBS containing 0.1% (w/v) BSA and treated for 30 min with mouse anti-biotin antibody. Bound antibody was quantified using the mouse IgG Elite Vectastain ABC kit (Vector Laboratories) followed by incubation with 1-Step Turbo TMB substrate as a chromogen (ThermoFisher Scientific). The reaction was stopped with 0.5 M H2SO4 and absorbance was read at 450 nm.

CD47 = settings: ref [43]; cited from earlier work
Text: In addition to the putative effects that may be due to CD47 association with its co-receptors, TAX2-bound TSP-1 also remains able to bind a wide variety of ligands through the other domains of the multi-modular protein. Among these domains, a central region of TSP-1 called 3TSR (three TSP-1 type 1 repeats) binds to the CD36 membrane receptor, also leading to inhibition of angiogenesis. Indeed, CD36 ligation by TSP-1 is known to induce an anti-angiogenic response by promoting CD36 association with β1 integrin and VEGFR2 dimer in a tripartite complex, resulting in decreased VEGFR2 phosphorylatio ... || Figure 7 TAX2 induces a shift in TSP-1 binding from CD47 to CD36 A. In physiological conditions, most of TSP-1-related effects on vascular function are mediated by TSP-1 carboxy terminal domain interaction with CD47 receptor. B. Under TAX2 treatment preventing TSP-1:CD47 interaction, binding of the 3TSR module of TSP-1 to CD36 receptor is promoted, thus leading to an overall anti-angiogenic response (NTD, N-terminal domain; Col, procollagen-homology domain; CBD, carboxy terminal cell binding domain). TEXT PRINTED IN THE PICTURE: (A) TSP-1: CD36: 1-10 nM; CD47: 10-100 pM DOUBTS OF THE COPYIST A ...

Substance	binding to immobilized TSP-1 [1]	binding affinity for CD47 compared to CD36 (CD47)
LSVDESKAQGIL [scrambled peptide, scrambled dodecapeptide used as a control (…), reference compound]	does not	
TSP-1: multimodular protein secreted as a disulfide-linked 450 kDa homotrimer		higher compared to CD36 binding
